≈ marks a conversion by molar mass, not a printed value. Where two headings read alike, the source gives them in different places. Starred links: 1 amine or outer side, 2 acyl side, 3 side chain; linkers in the order of their positions; H or OH if unused. Positions of bridges follow the written chain, without caps; N, C: chain ends. Residues, ends and D or L forms follow the SMILES beside them. *: point of attachment. C18 diacid = O=C(O)CCCCCCCCCCCCCCCCC(=O)*; γGlu = O=C(O)[C@H](CCC(=O)[*:2])N[*:1]; X1 = O=C(CCCCCCCCCCCCCCCCc1nnn[nH]1)*; AEEA = NCCOCCOCC(=O)O
What was measured:
[1] = target: T1, human natriuretic peptide receptor 2 (hNPR2) (Homo sapiens, UniProt P20594); experiment: In vitro hNPR2 activity assay (cGMP GloSensor reporter, HEK293); type: cell-based; conditions: potency relative to CNP22 (0065)
T1 construct: expressed in transfected cells; host or cells: HEK293 (ATCC CRL-1573), clone 35, co-transfected with pGloSensor-42F
T1 sequence (P20594 23-1047): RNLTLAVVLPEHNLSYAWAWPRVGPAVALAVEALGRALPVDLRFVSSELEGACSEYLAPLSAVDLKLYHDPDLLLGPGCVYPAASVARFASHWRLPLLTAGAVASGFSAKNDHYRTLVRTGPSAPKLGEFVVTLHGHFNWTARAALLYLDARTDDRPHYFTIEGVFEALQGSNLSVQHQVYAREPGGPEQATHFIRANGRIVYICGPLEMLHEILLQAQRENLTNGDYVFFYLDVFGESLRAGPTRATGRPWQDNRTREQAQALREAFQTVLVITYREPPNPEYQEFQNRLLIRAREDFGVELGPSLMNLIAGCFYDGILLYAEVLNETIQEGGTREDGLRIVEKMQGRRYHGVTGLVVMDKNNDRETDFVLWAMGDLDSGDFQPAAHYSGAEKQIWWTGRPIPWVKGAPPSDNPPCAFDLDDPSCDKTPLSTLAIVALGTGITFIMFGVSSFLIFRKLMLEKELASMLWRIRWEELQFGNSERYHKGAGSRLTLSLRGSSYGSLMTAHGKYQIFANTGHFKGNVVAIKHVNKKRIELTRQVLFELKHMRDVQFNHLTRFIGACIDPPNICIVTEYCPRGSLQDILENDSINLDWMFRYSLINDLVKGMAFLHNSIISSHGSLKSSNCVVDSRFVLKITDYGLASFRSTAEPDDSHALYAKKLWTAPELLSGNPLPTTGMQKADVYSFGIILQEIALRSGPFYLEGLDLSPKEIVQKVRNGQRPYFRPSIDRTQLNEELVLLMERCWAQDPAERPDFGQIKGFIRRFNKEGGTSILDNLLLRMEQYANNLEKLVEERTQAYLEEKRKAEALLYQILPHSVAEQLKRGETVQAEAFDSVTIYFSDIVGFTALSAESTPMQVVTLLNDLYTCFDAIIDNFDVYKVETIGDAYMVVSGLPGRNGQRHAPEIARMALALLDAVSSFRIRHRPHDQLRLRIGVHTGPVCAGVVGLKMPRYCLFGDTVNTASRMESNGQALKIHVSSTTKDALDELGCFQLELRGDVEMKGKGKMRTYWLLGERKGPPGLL
How it was run: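 Potency is the EC50 from a four-parameter logistic fit, also expressed relative to the in-plate CNP22 control (×100), with at least two replicates. Compounds (ten concentrations, […], HSA-free diluent with 1% OVA, 0.01% Tween20) were incubated 30 min at 37 °C on HEK293 cells co-expressing hNPR2 and a GloSensor cGMP luciferase. Luminescence detected with Bright-Glo.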

[2] = Solubility of CNP compounds at pH 4.0 and pH 6.5; type: physicochemical
How it was run: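 Freeze-dried peptide was brought to a nominal ≥4000-5000 nmol/mL in 5 mM sodium acetate, 250 mM glycerol (pH 4.0) or in 8 mM sodium phosphate, 23 mg/mL glycerol (pH 6.5 via NaOH titration). Samples were equilibrated at room temperature overnight if undissolved, and supernatant concentration was measured by CAD.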

[3] = 5 mM sodium acetate, 250 mM glycerol, pH 4.0, room temperature, read-out: Solubility at pH 4.0
[4] = 8 mM sodium phosphate, 23 mg/mL glycerol, pH 6.5, room temperature, read-out: Solubility at pH 6.5

For CC[C@H](C)[C@@H]1NC(=O)[C@H](CCCNC(=N)N)NC(=O)[C@H](CC(=O)O)NC(=O)[C@H](CC(C)C)NC(=O)[C@@H]2CCCN2C(=O)[C@H](CC(C)C)NC(=O)CNC(=O)[C@H](Cc2ccccc2)NC(=O)[C@@H](NC(=O)CNC(=O)[C@H](CCC(N)=O)NC(=O)[C@H](CO)NC(=O)[C@H](CC(C)C)NC(=O)CNC(=O)[C@H](CO)NC(=O)[C@H](CCCCN)NC(=O)[C@H](CCC(N)=O)NC(=O)[C@H](C)NC(=O)CNC(=O)[C@H](Cc2c[nH]cn2)NC(=O)[C@H](Cc2ccc(O)cc2)NC(=O)[C@H](CCCCN)NC(=O)[C@H](CCCNC(=N)N)NC(=O)[C@H](C)NC(=O)COCCOCCNC(=O)COCCOCCNC(=O)CC[C@H](NC(=O)CC[C@H](NC(=O)CCCCCCCCCCCCCCCCc2nnn[nH]2)C(=O)O)C(=O)O)CSSC[C@@H](C(=O)O)NC(=O)CNC(=O)[C@H](CC(C)C)NC(=O)CNC(=O)[C@H](CO)NC(=O)[C@H](CC(C)C)NC(=O)[C@H](CO)NC(=O)CNC1=O [compound 1426] ({X1-γGlu-γGlu-AEEA-AEEA}-ARKYHGAQKSGLSQGCFGLPLDRIGSLSGLGC-OH; disulfide 16-32), the “hNPR2 0% HSA. [EC50% rel CNP]” value [1] was 76.2% and the solubility [2, 3] was 11.2 mM (≈ 46.6 mg/mL).

In the case of CC[C@H](C)[C@@H]1NC(=O)[C@H](CCCNC(=N)N)NC(=O)[C@H](CC(=O)O)NC(=O)[C@H](CC(C)C)NC(=O)[C@@H]2CCCN2C(=O)[C@H](CC(C)C)NC(=O)CNC(=O)[C@H](Cc2ccccc2)NC(=O)[C@@H](NC(=O)CNC(=O)[C@H](CCC(N)=O)NC(=O)[C@H](CO)NC(=O)CNC(=O)CNC(=O)[C@H](CCCCN)NC(=O)[C@H](Cc2c[nH]cn2)NC(=O)[C@H](CCC(N)=O)NC(=O)[C@H](C)NC(=O)CNC(=O)[C@H](CCC(=O)O)NC(=O)[C@H](Cc2ccc(O)cc2)NC(=O)[C@H](CCCCN)NC(=O)[C@H](CCCNC(=N)N)NC(=O)[C@H](C)NC(=O)COCCOCCNC(=O)COCCOCCNC(=O)COCCOCCNC(=O)COCCOCCNC(=O)CC[C@H](NC(=O)CC[C@H](NC(=O)CCCCCCCCCCCCCCCCC(=O)O)C(=O)O)C(=O)O)CSSC[C@@H](C(=O)O)NC(=O)CNC(=O)[C@H](CC(C)C)NC(=O)CNC(=O)[C@H](CO)NC(=O)[C@H](CC(C)C)NC(=O)[C@H](CO)NC(=O)CNC1=O [compound 1432] ({C18 diacid-γGlu-γGlu-AEEA-AEEA-AEEA-AEEA}-ARKYEGAQHKGGSQGCFGLPLDRIGSLSGLGC-OH; disulfide 16-32), the “hNPR2 0% HSA. [EC50% rel CNP]” value [1] is reported as 26.0% and the solubility [2, 4] is reported as 9.83 mM (≈ 43.2 mg/mL).

In the case of CC[C@H](C)[C@@H]1NC(=O)[C@H](CCCNC(=N)N)NC(=O)[C@H](CC(=O)O)NC(=O)[C@H](CC(C)C)NC(=O)[C@@H]2CCCN2C(=O)[C@H](CC(C)C)NC(=O)CNC(=O)[C@H](Cc2ccccc2)NC(=O)[C@@H](NC(=O)CNC(=O)[C@H](CCC(N)=O)NC(=O)[C@H](CO)NC(=O)CNC(=O)CNC(=O)[C@H](CCCCN)NC(=O)[C@H](CCCCN)NC(=O)[C@H](CCC(N)=O)NC(=O)[C@H](C)NC(=O)CNC(=O)[C@H](Cc2c[nH]cn2)NC(=O)[C@H](Cc2ccc(O)cc2)NC(=O)COCCOCCNC(=O)COCCOCCNC(=O)COCCOCCNC(=O)COCCOCCNC(=O)CC[C@H](NC(=O)CC[C@H](NC(=O)CCCCCCCCCCCCCCCCC(=O)O)C(=O)O)C(=O)O)CSSC[C@@H](C(=O)O)NC(=O)CNC(=O)[C@H](CC(C)C)NC(=O)CNC(=O)[C@H](CO)NC(=O)[C@H](CC(C)C)NC(=O)[C@H](CO)NC(=O)CNC1=O [compound 1434] ({C18 diacid-γGlu-γGlu-AEEA-AEEA-AEEA-AEEA}-YHGAQKKGGSQGCFGLPLDRIGSLSGLGC-OH; disulfide 13-29), the “hNPR2 0% HSA. [EC50% rel CNP]” value [1] is reported as 29.0% and the solubility [2, 4] is reported as 8.51 mM (≈ 34.4 mg/mL).

With CC[C@H](C)[C@@H]1NC(=O)[C@H](CCCNC(=N)N)NC(=O)[C@H](CC(=O)O)NC(=O)[C@H](CC(C)C)NC(=O)[C@@H]2CCCN2C(=O)[C@H](CC(C)C)NC(=O)CNC(=O)[C@H](Cc2ccccc2)NC(=O)[C@@H](NC(=O)CNC(=O)[C@H](CCC(N)=O)NC(=O)[C@H](CO)NC(=O)[C@H](CC(C)C)NC(=O)CNC(=O)[C@H](CCCCN)NC(=O)[C@H](CCCCN)NC(=O)[C@H](CCC(N)=O)NC(=O)[C@H](C)NC(=O)CNC(=O)[C@H](CCCCN)NC(=O)[C@H](Cc2ccc(O)cc2)NC(=O)[C@H](CCCCN)NC(=O)[C@H](CCCNC(=N)N)NC(=O)[C@H](C)NC(=O)COCCOCCNC(=O)COCCOCCNC(=O)CC[C@H](NC(=O)CC[C@H](NC(=O)CC[C@H](NC(=O)CC[C@H](NC(=O)CC[C@H](NC(=O)CCCCCCCCCCCCCCCCC(=O)O)C(=O)O)C(=O)O)C(=O)O)C(=O)O)C(=O)O)CSSC[C@@H](C(=O)O)NC(=O)CNC(=O)[C@H](CC(C)C)NC(=O)CNC(=O)[C@H](CO)NC(=O)[C@H](CC(C)C)NC(=O)[C@H](CO)NC(=O)CNC1=O [compound 1453] ({C18 diacid-γGlu-γGlu-γGlu-γGlu-γGlu-AEEA-AEEA}-ARKYKGAQKKGLSQGCFGLPLDRIGSLSGLGC-OH; disulfide 16-32) the “hNPR2 0% HSA. [EC50% rel CNP]” value [1] was 33.5% and the solubility [2, 4] was 7.88 mM (≈ 35.8 mg/mL).

With CC[C@H](C)[C@@H]1NC(=O)[C@H](CCCNC(=N)N)NC(=O)[C@H](CC(=O)O)NC(=O)[C@H](CC(C)C)NC(=O)[C@@H]2CCCN2C(=O)[C@H](CC(C)C)NC(=O)CNC(=O)[C@H](Cc2ccccc2)NC(=O)[C@@H](NC(=O)CNC(=O)[C@H](CCC(N)=O)NC(=O)[C@H](CO)NC(=O)[C@H](CO)NC(=O)CNC(=O)[C@H](CCCCN)NC(=O)[C@H](CCCCN)NC(=O)[C@H](CCC(N)=O)NC(=O)[C@H](C)NC(=O)CNC(=O)[C@@H]2CCCN2C(=O)[C@H](C)NC(=O)[C@H](CCC(N)=O)NC(=O)CNC(=O)[C@@H]2CCCN2C(=O)[C@H](C)NC(=O)[C@H](CCC(N)=O)NC(=O)CNC(=O)[C@@H]2CCCN2C(=O)[C@H](C)NC(=O)[C@H](CCC(N)=O)NC(=O)CNC(=O)COCCOCCNC(=O)COCCOCCNC(=O)CC[C@H](NC(=O)CCCCCCCCCCCCCCCCC(=O)O)C(=O)O)CSSC[C@@H](C(=O)O)NC(=O)CNC(=O)[C@H](CC(C)C)NC(=O)CNC(=O)[C@H](CO)NC(=O)[C@H](CC(C)C)NC(=O)[C@H](CO)NC(=O)CNC1=O [compound 1457] ({C18 diacid-γGlu-AEEA-AEEA}-GQAPGQAPGQAPGAQKKGSSQGCFGLPLDRIGSLSGLGC-OH; disulfide 23-39) the “hNPR2 0% HSA. [EC50% rel CNP]” value [1] was 79.4% and the solubility [2, 4] was 8.96 mM (≈ 39.5 mg/mL).

For CC[C@H](C)[C@@H]1NC(=O)[C@H](CCCNC(=N)N)NC(=O)[C@H](CC(=O)O)NC(=O)[C@H](CC(C)C)NC(=O)[C@@H]2CCCN2C(=O)[C@H](CC(C)C)NC(=O)CNC(=O)[C@H](Cc2ccccc2)NC(=O)[C@@H](NC(=O)CNC(=O)[C@H](CCCCN)NC(=O)[C@H](CO)NC(=O)[C@H](CC(C)C)NC(=O)CNC(=O)[C@H](CCCCN)NC(=O)[C@H](CCCCN)NC(=O)[C@H](CCC(N)=O)NC(=O)[C@H](C)NC(=O)CNC(=O)[C@H](CCCCN)NC(=O)[C@H](Cc2ccc(O)cc2)NC(=O)[C@H](CCCCN)NC(=O)[C@H](CCCNC(=N)N)NC(=O)[C@H](C)NC(=O)COCCOCCNC(=O)COCCOCCNC(=O)CC[C@H](NC(=O)CC[C@H](NC(=O)CC[C@H](NC(=O)CC[C@H](NC(=O)CC[C@H](NC(=O)CCCCCCCCCCCCCCCCC(=O)O)C(=O)O)C(=O)O)C(=O)O)C(=O)O)C(=O)O)CSSC[C@@H](C(=O)O)NC(=O)CNC(=O)[C@H](CC(C)C)NC(=O)CNC(=O)[C@H](CO)NC(=O)[C@H](CC(C)C)NC(=O)[C@H](CO)NC(=O)CNC1=O [compound 1470] ({C18 diacid-γGlu-γGlu-γGlu-γGlu-γGlu-AEEA-AEEA}-ARKYKGAQKKGLSKGCFGLPLDRIGSLSGLGC-OH; disulfide 16-32), the “hNPR2 0% HSA. [EC50% rel CNP]” value [1] was 23.9%, the solubility [2, 3] was 6.48 mM (≈ 29.4 mg/mL) and the solubility [2, 4] was 0.595 mM (≈ 2.7 mg/mL).
